# PubChem BioAssay (NCI)
# Values joined by “and” are separate entries in the source; they are usually repeats but may differ in a detail not shown here. Equal entries are not always repeated.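 Exposure lasted 48 hours, with cells grown in 96-well plates and compounds tested at five concentrations. GI50 = concentration required for 50% inhibition of growth. At the TGI there is no net growth.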
# Key:
# Assay in all cases: growth of human tumour cells (NCI), 48 h
# [1] = system: UACC-257 melanoma
# [2] = system: K-562 leukemia
# [3] = system: EKVX NSCLC
# [4] = system: SNB-75 CNS
# [5] = system: IGROV1 ovarian
# [6] = system: MDA-MB-435
# [7] = system: M14 melanoma
# [8] = system: SK-MEL-28 melanoma
# [9] = system: SN12C renal
# [10] = system: HOP-92 NSCLC
# [11] = system: NCI/ADR-RES ovarian
# [12] = system: NCI-H226 lung
# [13] = system: OVCAR-5 ovarian
# [14] = system: SK-MEL-5 melanoma
# [15] = system: SF-268 CNS
# [16] = system: RXF 393 renal
# [17] = system: NCI-H460 lung
# [18] = system: HL-60(TB) leukemia
# [19] = system: SF-295 CNS
# [20] = system: LOX IMVI melanoma
# [21] = system: U251 CNS
# [22] = system: SNB-19 CNS
# [23] = system: UACC-62 melanoma
# [24] = system: DU-145 prostate
# [25] = system: MDA-MB-231 breast
# [26] = system: PC-3 prostate
# [27] = system: SK-OV-3 ovarian
# [28] = system: SR leukemia
# [29] = system: HCT-116 colon
# [30] = system: HCC-2998 colon
# [31] = system: SW-620 colon
# [32] = system: OVCAR-3 ovarian
# [33] = system: OVCAR-4 ovarian
# [34] = system: TK-10 renal
# [35] = system: HT29 colon
# [36] = system: HOP-62 NSCLC
# [37] = system: A498 renal
# [38] = system: 786-0 renal
# [39] = system: ACHN renal
# [40] = system: CCRF-CEM leukemia
# [41] = system: UO-31 renal
# [42] = system: HCT-15 colon
# [43] = system: NCI-H23 lung
# [44] = system: OVCAR-8 ovarian
# [45] = system: NCI-H522 lung
# [46] = system: T-47D breast
# [47] = system: A549 NSCLC
# [48] = system: COLO 205 colon
# [49] = system: MALME-3M melanoma
# [50] = system: RPMI-8226 leukemia
# [51] = system: BT-549 breast
# [52] = system: MCF7 breast
# [53] = system: HS 578T breast
# [54] = system: SF-539 CNS
# [55] = system: KM12 colon
# [56] = system: MDA-N
# [57] = system: SK-MEL-2 melanoma
# [58] = system: CAKI-1 renal
smiles,measurement,setting,value
CCOC(=O)C(Cc1c[nH]c2cc(N(CCO)CCO)ccc12)(NC(C)=O)C(=O)OCC,GI50,[1],> 1000 µM
same,TGI,[1],> 1000 µM
same,GI50,[2],81.7 µM
same,TGI,[2],501 µM
same,GI50,[3],> 1000 µM
same,TGI,[3],> 1000 µM
same,TGI,[4],> 1000 µM
same,GI50,[5],445 µM
same,TGI,[5],> 1000 µM
same,GI50,[6],34.6 µM and 50.1 µM
same,TGI,[6],200 µM
same,GI50,[7],517 µM
same,TGI,[7],> 1000 µM
same,GI50,[8],636 µM
same,TGI,[8],> 1000 µM
same,GI50,[9],379 µM
same,TGI,[9],> 1000 µM
same,GI50,[10],> 1000 µM
same,TGI,[10],> 1000 µM
same,GI50,[11],> 1000 µM
same,TGI,[11],> 1000 µM
same,GI50,[12],> 1000 µM
same,TGI,[12],> 1000 µM
same,GI50,[13],> 1000 µM
same,TGI,[13],> 1000 µM
same,TGI,[14],> 1000 µM
same,GI50,[15],619 µM
same,TGI,[15],> 1000 µM
same,GI50,[16],128 µM
same,TGI,[16],719 µM
same,GI50,[17],433 µM
same,TGI,[17],> 1000 µM
same,GI50,[18],133 µM
same,TGI,[18],489 µM
same,GI50,[19],> 1000 µM
same,TGI,[19],> 1000 µM
same,GI50,[20],217 µM
same,TGI,[20],> 1000 µM
same,GI50,[21],309 µM
same,TGI,[21],> 1000 µM
same,GI50,[22],> 1000 µM
same,TGI,[22],> 1000 µM
same,GI50,[23],66.8 µM
same,TGI,[23],> 1000 µM
same,GI50,[24],391 µM
same,TGI,[24],> 1000 µM
same,GI50,[25],960 µM
same,TGI,[25],> 1000 µM
same,GI50,[26],94.9 µM and 160 µM
same,TGI,[26],> 1000 µM
same,GI50,[27],480 µM
same,TGI,[27],> 1000 µM
same,GI50,[28],16.8 µM and 34.6 µM
same,GI50,[29],325 µM
same,TGI,[29],> 1000 µM
same,GI50,[30],> 1000 µM
same,TGI,[30],> 1000 µM
same,GI50,[31],398 µM
same,TGI,[31],> 1000 µM
same,GI50,[32],186 µM
same,TGI,[32],726 µM
same,GI50,[33],> 1000 µM
same,TGI,[33],> 1000 µM
same,GI50,[34],> 1000 µM
same,TGI,[34],> 1000 µM
same,GI50,[35],305 µM
same,TGI,[35],> 1000 µM
same,GI50,[36],> 1000 µM
same,TGI,[36],> 1000 µM
same,GI50,[37],570 µM
same,TGI,[37],> 1000 µM
same,GI50,[38],919 µM
same,TGI,[38],> 1000 µM
same,GI50,[39],481 µM
same,TGI,[39],> 1000 µM
same,TGI,[40],57.2 µM and 448 µM
same,GI50,[41],673 µM
same,TGI,[41],> 1000 µM
same,GI50,[42],758 µM
same,TGI,[42],> 1000 µM
same,GI50,[43],491 µM
same,TGI,[43],> 1000 µM
same,GI50,[44],697 µM
same,TGI,[44],> 1000 µM
same,GI50,[45],61.9 µM
same,TGI,[45],> 1000 µM
same,GI50,[46],472 µM
same,TGI,[46],> 1000 µM
same,GI50,[47],604 µM
same,TGI,[47],> 1000 µM
same,GI50,[48],274 µM
same,TGI,[48],> 1000 µM
same,GI50,[49],258 µM
same,TGI,[49],> 1000 µM
same,GI50,[50],65.3 µM
same,GI50,[51],69.3 µM and 459 µM
same,TGI,[51],> 1000 µM
same,GI50,[52],26.6 µM and 135 µM
same,TGI,[52],815 µM
same,GI50,[53],246 µM
same,TGI,[53],808 µM
same,GI50,[54],42.9 µM and 286 µM
same,TGI,[54],770 µM
same,GI50,[55],143 µM
same,TGI,[55],463 µM
c1ccc2cc3c(cc2c1)Nc1c2ccccc2nc2cccc-3c12,TGI,[1],2.92 µM
same,TGI,[2],> 100 µM
same,TGI,[5],2.75 µM
same,TGI,[6],3.43 µM
same,TGI,[7],3.76 µM
same,TGI,[8],3.12 µM
same,TGI,[9],3.08 µM
same,TGI,[10],2.86 µM
same,TGI,[11],4.69 µM
same,TGI,[12],5.03 µM
same,TGI,[13],3.22 µM
same,TGI,[14],3.11 µM
same,TGI,[17],3.26 µM
same,TGI,[19],2.96 µM
same,TGI,[20],2.93 µM
same,TGI,[23],3.57 µM
same,TGI,[24],3.1 µM
same,TGI,[25],2.45 µM
same,TGI,[26],2.87 µM
same,TGI,[27],3.01 µM
same,TGI,[30],3.1 µM
same,TGI,[31],2.91 µM
same,TGI,[34],3.28 µM
same,TGI,[35],3.2 µM
same,TGI,[37],6.8 µM
same,TGI,[39],2.88 µM
same,TGI,[41],3 µM
same,TGI,[43],2.61 µM
same,TGI,[56],2.83 µM
same,TGI,[47],3.3 µM
same,TGI,[57],2.84 µM
same,TGI,[48],3.02 µM
same,TGI,[49],3.07 µM
same,TGI,[51],38.4 µM
same,TGI,[58],3.05 µM
